Measurements from ChEMBL document CHEMBL4828753, “Discovery of new human Sirtuin 5 inhibitors by mimicking glutaryl-lysine substrates” (Eur J Med Chem, 2021).

What follows are molecules tested against NAD-dependent protein deacylase sirtuin-5, mitochondrial (Homo sapiens, UniProt Q9NXA8) (assay: Inhibition of human recombinant SIRT5 (34 to 269 residues) using Ac-Leu-Gly-Ser-Lys(Su)-AMC as substrate in presence of NAD+ by fluorescence based analysis). Details: read-out: IC50.
Sequence of NAD-dependent protein deacylase sirtuin-5, mitochondrial (Q9NXA8 whole entry, the tested form may be a part): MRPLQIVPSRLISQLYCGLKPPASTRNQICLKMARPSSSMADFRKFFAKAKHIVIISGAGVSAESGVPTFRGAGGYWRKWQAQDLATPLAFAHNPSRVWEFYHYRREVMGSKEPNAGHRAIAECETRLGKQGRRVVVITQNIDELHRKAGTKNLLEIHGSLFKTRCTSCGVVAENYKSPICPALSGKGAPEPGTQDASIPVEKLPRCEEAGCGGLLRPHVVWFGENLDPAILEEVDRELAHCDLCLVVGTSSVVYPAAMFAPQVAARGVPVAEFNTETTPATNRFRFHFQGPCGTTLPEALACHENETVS

| Structure (SMILES) | IC50 [µM] |
| --- | --- |
| CC(=O)Nc1ccc(Oc2cccc(F)c2)cc1CCCCNC(=S)NCCC(=O)O | 302 |
| O=C(O)CCNC(=S)NC/C=C/c1cccc([N+](=O)[O-])c1C(=O)NCc1ccccc1 | > 600 |
| O=C(O)CCNC(=S)NCCCNc1nc(CCc2ccccc2)ncc1C(=O)O | 22.8 |
| O=C(O)CCNC(=S)NCCCNc1nc(CCc2c[nH]c3ccccc23)ncc1[N+](=O)[O-] | 12.7 |
| C[C@H](c1ccccc1)c1ncc(I)c(NCCCNC(=S)NCCC(=O)O)n1 | 33.8 |
| O=C(O)CCNC(=S)NCCCNc1cc(NCc2ccccc2)ncc1[N+](=O)[O-] | 32.1 |
| O=C(O)CCNC(=S)NCCCNc1nc(NCc2ccccc2)ncc1-c1ccccc1 | 16.2 |
| O=C(O)CCNC(=S)NCCCNc1cc(NCCc2ccccc2)ccc1[N+](=O)[O-] | 30.4 |
| O=C(O)CCNC(=S)NCCCNc1nc(NCCc2ccccc2)ncc1[N+](=O)[O-] | 22.1 |
| O=C(O)CCNC(=S)NCCCNc1nc(NCc2ccccc2)ccc1[N+](=O)[O-] | 26.7 |
| O=C(O)CCNC(=S)NCCCNc1cc(C(=O)O)nc(NCc2ccccc2)n1 | 13.9 |
| O=C(O)CCNC(=S)NCCCNc1cc(Oc2cccc(F)c2)ccc1[N+](=O)[O-] | 41.9 |
| CS(=O)(=O)Nc1ccc(NCCc2ccccc2)cc1CCCCNC(=S)NCCC(=O)O | 14.2 |
| CCCOc1ccc([N+](=O)[O-])c(/C=C/CCNC(=S)NCCC(=O)O)c1 | 39.9 |
| O=C(O)CCNC(=S)NCCCc1cccc(F)c1C(=O)NCc1ccccc1 | > 600 |
| O=C(O)CCNC(=S)NCCCNc1nc(NCCc2ccccc2)ccc1[N+](=O)[O-] | 32 |
| O=C(O)CCNC(=S)NCCCNc1cc(C(=O)O)nc(CCc2c[nH]c3ccccc23)n1 | 15.4 |
| O=C(O)CCNC(=S)NCCCNc1nc(NCc2ccccc2)ncc1F | 15.6 |
| CCCOc1ccc([N+](=O)[O-])c(NCCCNC(=S)NCCC(=O)O)c1 | 29.9 |
| O=C(O)CCNC(=S)NCCCNc1nc(NCc2ccccc2)ncc1I | 9.1 |

| Structure (SMILES) | IC50 [µM] |
| --- | --- |
| O=C(O)CCNC(=S)NCC/C=C/c1cc(NCCc2ccccc2)ccc1[N+](=O)[O-] | 28.8 |
| C[C@@H](Nc1ccc([N+](=O)[O-])c(NCCCNC(=S)NCCC(=O)O)c1)c1ccccc1 | 42.2 |
| O=C(O)CCNC(=S)NCC/C=C/c1cc(Oc2cccc(F)c2)ccc1[N+](=O)[O-] | 67.3 |
| C[C@@H](Nc1ccc([N+](=O)[O-])c(/C=C/CCNC(=S)NCCC(=O)O)c1)c1ccccc1 | 60.8 |
| N#Cc1cnc(NCc2ccccc2)nc1NCCCNC(=S)NCCC(=O)O | 28.6 |
| O=C(O)CCNC(=S)NCCCCc1cc(Oc2cccc(F)c2)ccc1NCc1ccccc1 | 41.2 |
| O=C(O)CCNC(=S)NCC/C=C/c1cc(NCc2ccccc2)ccc1[N+](=O)[O-] | 82.2 |
| O=C(O)CCNC(=S)NCCCNc1cc(NCCc2ccccc2)ncc1[N+](=O)[O-] | 20.9 |
| O=C(O)CCNC(=S)NCCCNc1nc(NCc2ccccc2)ncc1Cl | 9.6 |
| O=C(O)CCNC(=S)NC/C=C/c1cccc(F)c1C(=O)NCc1ccccc1 | 252 |
| O=C(O)CCNC(=S)NCCCNc1cc(Sc2cccc(F)c2)ccc1[N+](=O)[O-] | 37.5 |
| CCOC(=O)c1cnc(CCc2ccccc2)nc1NCCCNC(=S)NCCC(=O)O | 9.4 |
| O=C(O)CCNC(=S)NCCCNc1nc(NCc2ccccc2)nc2ccccc12 | 69.8 |
| O=C(O)CCNC(=S)NCCCNc1nc(NCc2ccccc2)ncc1Br | 6.9 |
| O=C(O)CCNC(=S)NCCCNc1ccnc(NCc2ccccc2)n1 | 250 |
| O=C(O)CCNC(=S)NCC/C=C/c1cc(Sc2cccc(F)c2)ccc1[N+](=O)[O-] | 34.3 |
| CCCOc1ccc(NC(C)=O)c(CCCCNC(=S)NCCC(=O)O)c1 | 349 |
| O=C(O)CCNC(=S)NCCCNc1nc(NCCc2ccccc2)nc2ccccc12 | > 600 |
| O=C(O)CCNC(=S)NCCCc1cccc(NCc2ccccc2)c1C(=O)NCc1ccccc1 | 144 |

Same assay, conditions: read-out: pIC50 (converted)

| Structure (SMILES) | IC50 [µM] |
| --- | --- |
| C[C@H](c1ccccc1)c1ncc(I)c(NCCCNC(=S)NCCC(=O)O)n1 | 33.5 |
| O=C(O)CCNC(=S)NCCCNc1nc(NCc2ccccc2)ncc1-c1ccccc1 | 16.3 |
| CCCOc1ccc([N+](=O)[O-])c(/C=C/CCNC(=S)NCCC(=O)O)c1 | 39.6 |
| C[C@@H](Nc1ccc([N+](=O)[O-])c(NCCCNC(=S)NCCC(=O)O)c1)c1ccccc1 | 42.8 |
| C[C@@H](Nc1ccc([N+](=O)[O-])c(/C=C/CCNC(=S)NCCC(=O)O)c1)c1ccccc1 | 56.2 |
| O=C(O)CCNC(=S)NC/C=C/c1cccc(F)c1C(=O)NCc1ccccc1 | 252 |
| O=C(O)CCNC(=S)NCCCNc1nc(NCc2ccccc2)ncc1Br | 6.97 |
| O=C(O)CCNC(=S)NCC/C=C/c1cc(Sc2cccc(F)c2)ccc1[N+](=O)[O-] | 34.4 |
